Our source for the Ki values is patent publication US10988478B1, “Pyrazolo[1,5a]pyrimidine derivatives as IRAK4 modulators” (Genentech, Inc., priority 2015, dated 2021).

In general, Ki refers to the dissociation constant of the complex between target and ligand, obtained from inhibition or displacement.

The test deals with human IRAK4 (Homo sapiens (Human), UniProt Q9NWZ3). Description: IRAK4 kinase inhibition, Transcreener fluorescence polarization ADP assay. Type of test: biochemical. Particulars: recombinant full-length His6-IRAK4; 125 uM ATP; 90 min; Ki computed using ATP Km 642 uM. The method, then: Compounds were assayed for inhibition of human IRAK4 and IRAK1 catalytic activity using recombinant enzyme produced from insect cells. Full-length IRAK4 protein, carrying an N-terminal His6-Tag, was obtained from Life Technologies (Carlsbad, Calif., USA). The IRAK1 construct was produced internally and was comprised of IRAK1 residues Arg194 to Ser712, preceded by an NH2-terminal His6 tag and the coding sequence for glutathione-S-transferase.
Chain of human IRAK4 (Q9NWZ3 whole entry, the tested form may be a part): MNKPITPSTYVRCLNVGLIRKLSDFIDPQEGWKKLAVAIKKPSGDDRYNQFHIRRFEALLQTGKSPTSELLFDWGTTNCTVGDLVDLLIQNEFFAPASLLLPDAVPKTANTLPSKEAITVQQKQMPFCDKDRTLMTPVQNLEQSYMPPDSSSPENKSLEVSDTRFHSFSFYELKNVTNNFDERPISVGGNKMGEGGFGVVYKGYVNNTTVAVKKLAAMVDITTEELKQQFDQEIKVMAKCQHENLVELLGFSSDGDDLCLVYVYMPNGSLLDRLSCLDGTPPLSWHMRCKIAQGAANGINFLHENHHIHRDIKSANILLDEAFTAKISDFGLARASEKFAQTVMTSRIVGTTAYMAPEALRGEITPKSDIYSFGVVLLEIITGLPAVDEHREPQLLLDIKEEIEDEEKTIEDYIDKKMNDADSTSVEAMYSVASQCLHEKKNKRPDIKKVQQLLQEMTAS
In general terms: In fluorescence polarisation assays a small probe gives low polarisation when free and higher when bound to something large.
As to `COCCN1Cc2cc(NC(=O)c3cnn4cccnc34)c(N3CCOCC3)cc2C1=O` [Example 178, N-[2-(2-methoxyethyl)-6-morpholino-1-oxo-isoindolin-5-yl]pyrazolo[1,5-a]pyrimidine-3-carboxamide], the inhibition constant Ki came to 15 nM. With `O=C(Nc1cc2c(cc1N1CCOCC1)C(=O)N(CCO)C2)c1cnn2cccnc12` [Example 179, N-[2-(2-hydroxyethyl)-6-morpholino-1-oxo-isoindolin-5-yl]pyrazolo[1,5-a]pyrimidine-3-carboxamide] the figure was 31 nM. Consider `CN1CCC(N2Cc3cc(NC(=O)c4cnn5cccnc45)c(N4CCOCC4)cc3C2=O)CC1` [Example 180, N-[2-(1-methyl-4-piperidyl)-6-morpholino-1-oxo-isoindolin-5-yl]pyrazolo[1,5-a]pyrimidine-3-carboxamide], for which the Ki amounted to 3.8 nM. Turning to `O=C(Nc1cc2c(cc1N1CCOCC1)C(=O)N([C@H]1CC[C@H](O)CC1)C2)c1cnn2cccnc12` [Example 181, N-[2-(4-hydroxycyclohexyl)-6-morpholino-1-oxo-isoindolin-5-yl]pyrazolo[1,5-a]pyrimidine-3-carboxamide], the inhibition constant (Ki) came out at 2 nM. `CNC(=O)[C@H]1[C@@H]2CN(c3cc4c(cc3NC(=O)c3cnn5cccnc35)CC(C)(C)O4)C[C@@H]21` [Example 182, N-[2,2-dimethyl-6-[(1S,5R)-6-(methylcarbamoyl)-3-azabicyclo[3.1.0]hexan-3-yl]-3H-benzofuran-5-yl]pyrazolo[1,5-a]pyrimidine-3-carboxamide]: the Ki worked out at 56 nM. With `CNC(=O)CC1CCN(c2cc3c(cc2NC(=O)c2cnn4cccnc24)CC(C)(C)O3)CC1` [Example 183, N-[2,2-dimethyl-6-[4-[2-(methylamino)-2-oxo-ethyl]-1-piperidyl]-3H-benzofuran-5-yl]pyrazolo[1,5-a]pyrimidine-3-carboxamide] the figure was 5.1 nM. The value for `CC1(C)Cc2cc(NC(=O)c3cnn4cccnc34)c(N3CCC(C)(C(N)=O)CC3)cc2O1` [Example 184, N-[6-(4-carbamoyl-4-methyl-1-piperidyl)-2,2-dimethyl-3H-benzofuran-5-yl]pyrazolo[1,5-a]pyrimidine-3-carboxamide] was 3.1 nM. With `CC1(C)Cc2cc(NC(=O)c3cnn4cccnc34)c(N3CCCC(O)CC3)cc2O1` (stereo not shown) [Example 185, N-[6-(4-hydroxyazepan-1-yl)-2,2-dimethyl-3H-benzofuran-5-yl]pyrazolo[1,5-a]pyrimidine-3-carboxamide] the figure was 5.8 nM. Regarding `CC1(C)Cc2cc(NC(=O)c3cnn4cccnc34)c(N3C[C@@H]4[C@H](C3)[C@H]4C(N)=O)cc2O1` [Example 186, N-[6-[(1S,5R)-6-carbamoyl-3-azabicyclo[3.1.0]hexan-3-yl]-2,2-dimethyl-3H-benzofuran-5-yl]pyrazolo[1,5-a]pyrimidine-3-carboxamide], the Ki amounted to 15 nM. The value for `CC1(C)Cc2cc(NC(=O)c3cnn4cccnc34)c(N3CCN(CC(N)=O)CC3)cc2O1` [Example 187, N-[6-[4-(2-amino-2-oxo-ethyl)piperazin-1-yl]-2,2-dimethyl-3H-benzofuran-5-yl]pyrazolo[1,5-a]pyrimidine-3-carboxamide] was 2 nM; that for `Cn1cncc1C1CCN(c2cc3c(cc2NC(=O)c2cnn4cccnc24)CC(C)(C)O3)C1` (stereo not shown) [Example 188, N-[2,2-dimethyl-6-[3-(3-methylimidazol-4-yl)pyrrolidin-1-yl]-3H-benzofuran-5-yl]pyrazolo[1,5-a]pyrimidine-3-carboxamide] was 84 nM. With `CC1(C)Cc2cc(NC(=O)c3cnn4cccnc34)c(N3Cc4cccnc4C3)cc2O1` [Example 189, N-[6-(5,7-dihydropyrrolo[3,4-b]pyridin-6-yl)-2,2-dimethyl-3H-benzofuran-5-yl]pyrazolo[1,5-a]pyrimidine-3-carboxamide] the figure was 5.5 nM. The value for `CC1(C)Cc2cc(NC(=O)c3cnn4cccnc34)c(N3CCCC(c4ccn[nH]4)C3)cc2O1` (stereo not shown) [Example 190, N-[2,2-dimethyl-6-[3-(1H-pyrazol-5-yl)-1-piperidyl]-3H-benzofuran-5-yl]pyrazolo[1,5-a]pyrimidine-3-carboxamide] was 630 nM; that for `CC1(C)Cc2cc(NC(=O)c3cnn4cccnc34)c(N3CC4COCC4C3)cc2O1` (stereo not shown) [Example 191, N-[6-(1,3,3a,4,6,6a-hexahydrofuro[3,4-c]pyrrol-5-yl)-2,2-dimethyl-3H-benzofuran-5-yl]pyrazolo[1,5-a]pyrimidine-3-carboxamide] was 27 nM; that for `CC1(C)Cc2cc(NC(=O)c3cnn4cccnc34)c(N3CCC(c4cc[nH]n4)C3)cc2O1` (stereo not shown) [Example 192, N-[2,2-dimethyl-6-[3-(1H-pyrazol-3-yl)pyrrolidin-1-yl]-3H-benzofuran-5-yl]pyrazolo[1,5-a]pyrimidine-3-carboxamide] was 44 nM. On to `CC1(C)Cc2cc(NC(=O)c3cnn4cccnc34)c(N3CC4CC3CC4(F)F)cc2O1` (stereo not shown) [Example 193, N-[6-(5,5-difluoro-2-azabicyclo[2.2.1]heptan-2-yl)-2,2-dimethyl-3H-benzofuran-5-yl]pyrazolo[1,5-a]pyrimidine-3-carboxamide], for which the Ki was 100 nM. Take `CC1(C)Cc2cc(NC(=O)c3cnn4cccnc34)c(N3CC4(CCCOC4)C3)cc2O1` [Example 194, N-[2,2-dimethyl-6-(6-oxa-2-azaspiro[3.5]nonan-2-yl)-3H-benzofuran-5-yl]pyrazolo[1,5-a]pyrimidine-3-carboxamide]: the Ki is 410 nM.

With `CC1(C)Cc2cc(NC(=O)c3cnn4cccnc34)c(N3CCC(C(F)(F)F)C3)cc2O1` (stereo not shown) [Example 195, N-[2,2-dimethyl-6-[3-(trifluoromethyl)pyrrolidin-1-yl]-3H-benzofuran-5-yl]pyrazolo[1,5-a]pyrimidine-3-carboxamide], the Ki came out at 20 nM.

Turning to `CC1(C)Cc2cc(NC(=O)c3cnn4cccnc34)c(N3CCCC(F)(F)C3)cc2O1` [Example 196, N-(6-(3,3-difluoropiperidin-1-yl)-2,2-dimethyl-2,3-dihydrobenzofuran-5-yl)pyrazolo[1,5-a]pyrimidine-3-carboxamide], the Ki was 13 nM. The value for `CC1(C)Cc2cc(NC(=O)c3cnn4cccnc34)c(N3C[C@@H]4CC(F)(F)C[C@@H]4C3)cc2O1` [Example 197, N-(6-((3aR,6aS)-5,5-difluorohexahydrocyclopenta[c]pyrrol-2(1H)-yl)-2,2-dimethyl-2,3-dihydrobenzofuran-5-yl)pyrazolo[1,5-a]pyrimidine-3-carboxamide] was 33 nM; that for `COCC1CN(c2cc3c(cc2NC(=O)c2cnn4cccnc24)CC(C)(C)O3)CCO1` (stereo not shown) [Example 198, N-(6-(2-(methoxymethyl)morpholino)-2,2-dimethyl-2,3-dihydrobenzofuran-5-yl)pyrazolo[1,5-a]pyrimidine-3-carboxamide] was 140 nM. The value for `CC1(C)Cc2cc(NC(=O)c3cnn4cccnc34)c(N3CC4CC(F)(F)C4C3)cc2O1` (stereo not shown) [Example 199, N-(6-(6,6-difluoro-3-azabicyclo[3.2.0]heptan-3-yl)-2,2-dimethyl-2,3-dihydrobenzofuran-5-yl)pyrazolo[1,5-a]pyrimidine-3-carboxamide] was 170 nM.
